The nature of data set [1]: Mass balance study in humans using 14C-labelled pretomanid. In kind it is in vivo. As to conditions: human, plasma, oral; 6% of the pretomanid therapeutic AUC0-24, 200 mg/day; read-out: Estimated human AUC0-24 of M50.
On the set-up of data set [2]: method as in unpublished data. As to conditions: humans, 14C-labelled pretomanid; ref unpublished data; cited from earlier work.
The test system of data set [3] is CHO-K1 cells. Nature of the data set: Chromosome aberration assay in CHO cells. On the procedure:
CHO-K1 cells (American Type Culture Collection) were exposed to pretomanid at 22.5 to 360 μg/mL for 4 hours with and without added S9 mix and for 20 hours without added S9 mix. All cells were harvested 20 hours after treatment initiation. The assay was performed using standard procedures, [13] including duplicate cultures and appropriate negative and positive controls. Under each set of conditions, three test concentrations were evaluated. The highest was the lowest precipitating concentration, and two additional lower concentrations also were evaluated.
After incubation, cells were harvested and placed on slides, which were examined microscopically to determine relative mitotic index and to evaluate metaphase spreads for structural or numerical chromosome aberrations. Where possible, 200 metaphase spreads were evaluated. The mean numbers of aberrations in various cultures were compared to reach conclusions about assay validity and clastogenic potential.

Data set [4] deals with CD-1(ICR) BR mice, bone marrow erythrocytes. In words: Bone marrow micronucleus assay in mice. The format is in vivo. Here is the method:
Groups of male CD-1®(ICR) BR mice were given single oral doses of vehicle (0.4% CMC), positive control article, or pretomanid at 125, 500 or 2000 mg/kg and then were euthanized approximately 24 or 48 hours later to harvest femoral bone marrow. Bone marrow was mounted on slides and stained with May-Grünwald solution and Giemsa. For each mouse, 500 red blood cells were examined to determine the ratio of immature red blood cells (polychromatophilic erythrocytes or PCEs) to mature red blood cells (normochromatophilic erythrocytes of NCEs) and 2000 PCEs were examined to determine the ratio of micronucleated PCEs (mnPCEs) to normal PCEs.
The mean PCE-to-NCE ratios in various groups were compared to reach conclusions about assay validity and effects on erythropoiesis. The mean mnPCE-to-PCE ratios in various groups were compared to reach conclusions about assay validity and clastogenicity. Comparisons were made using an analysis of variance on untransformed mnPCE-to-PCE ratios for each mouse and on untransformed PCE-to-NCE ratios when the variances were homogeneous. Ranked proportions were used for heterogeneous variances. […] Comparisons were made at the 5% probability level.

Data set [5] is described as follows: Plasma exposure in the mouse micronucleus study. In kind it is in vivo, mice.

We go through 2 compounds from article PMC9411704, “Assessment of the Carcinogenic Potential of Pretomanid in Transgenic Tg.rasH2 Mice” (International Journal of Toxicology, 2022).

Broadly, the Cmax is the highest concentration seen after dosing.

Take `O=[N+]([O-])c1cn2c(n1)OC[C@@H](O)C2` [M50]: the AUC(0-t) in data set [1] was roughly 3 µg·h/mL. Further, the “M50 metabolite as % of the parent compound” value in data set [2] is given as roughly 6%.
Regarding `O=[N+]([O-])c1cn2c(n1)OC[C@@H](OCc1ccc(OC(F)(F)F)cc1)C2` [Pretomanid, (6S)-2-nitro-6-{[4-(trifluoromethoxy)benzyl]oxy}-6,7-dihydro-5H-imidazo[2,1-b][1,3]oxazine], the “Cytotoxicity in CHO cells” value in data set [3] (22.5 to 360 μg/mL, 4 h ±S9, 20 h −S9) was “no cytotoxicity was observed”. In data set [3] (any concentration, P>0.05), the “Frequency of chromosome aberrations” value is reported as “did not significantly increase”. Moreover, in data set [3] (up to 360 μg/mL, 4 h ±S9, 20 h −S9), the “Clastogenic potential in mammalian cells in vitro” value was “negative”. Further, in data set [4] (any dose level (125, 500, 2000 mg/kg), 24 or 48 h), the mnPCE-to-PCE ratio entry is reported as “did not significantly increase”. The “Effect on erythropoiesis (PCE:NCE ratio)” value in data set [4] (single oral 125, 500 or 2000 mg/kg) is “did not affect erythropoiesis”. In addition, in data set [4] (single oral doses up to 2000 mg/kg), the “Clastogenic potential in vivo” value is “negative”. In data set [5] (male, CD-1(ICR) BR, mouse, single oral dose 2000 mg/kg, plasma), this compound showed a peak concentration (Cmax) of 36000 ng/mL. Moreover, the AUC(0-t) in data set [5] (male, CD-1(ICR) BR, mouse, single oral dose 2000 mg/kg, plasma, read-out: Mean AUClast) is 1140 µg·h/mL. For the same compound, the “Dose proportionality of plasma exposure (Cmax and AUC)” value in data set [5] (single oral 125 to 2000 mg/kg) was “increased less than proportionally with dose level”.
